Reference: US20100298141A1, “SUBSTITUTED PYRIDINE N-OXIDE HERBICIDES” (E. I. DU PONT DE NEMOURS AND COMPANY, priority 2007, published 2010)

Experiments:
Experiment in all cases: Test F preemergence test
Details in all cases: scale 0 to 100
bermudagrass = format: in vivo, Cynodon dactylon
Outline: (§1)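 Visual ratings relative to controls, taken after 14 to 21 days in a greenhouse. Test chemicals, formulated in a surfactant-containing non-phytotoxic solvent mixture, were applied preemergence to sown seeds or postemergence to sugarcane plants.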

kochia = format: in vivo, Kochia scoparia
Outline: as §1

pitted morningglory = format: in vivo, Ipomoea lacunosa
Outline: as §1

purple nutsedge = format: in vivo, Cyperus rotundus
Outline: as §1

mustard = format: in vivo, Brassica nigra
Outline: as §1

guineagrass = format: in vivo, Panicum maximum
Outline: as §1

dallisgrass = format: in vivo, Paspalum dilatatum
Outline: as §1

barnyardgrass = format: in vivo, Echinochloa crus-galli
Outline: as §1

prickly sida = format: in vivo, Sida spinosa
Outline: as §1

common purslane = format: in vivo, Portulaca oleracea
Outline: as §1

broadleaf signalgrass = format: in vivo, Brachiaria platyphylla
Outline: as §1

common groundsel = format: in vivo, Senecio vulgaris
Outline: as §1

common chickweed = format: in vivo, Stellaria media
Outline: as §1

Virginia dayflower = format: in vivo, Commelina virginica
Outline: as §1

annual bluegrass = format: in vivo, Poa annua
Outline: as §1

naked crabgrass = format: in vivo, Digitaria nuda
Outline: as §1

quackgrass = format: in vivo, Elytrigia repens
Outline: as §1

Canada horseweed = format: in vivo, Conyza canadensis
Outline: as §1

common mallow = format: in vivo, Malva sylvestris
Outline: as §1

SMILES: Cc1cc[n+]([O-])c(S(=O)(=O)C(C)c2c(C(F)(F)F)nn(C)c2OC(F)F)c1 (stereo not drawn) [Compound 11]
- Bermudagrass plant response rating (bermudagrass; 62 g ai/ha, Preemergence): 98
- Bermudagrass plant response rating (bermudagrass; 125 g ai/ha, preemergence): 100
- Plant response rating, Bermudagrass (bermudagrass; Preemergence, 16 g ai/ha): 35
- Plant response rating, Bermudagrass (bermudagrass; Preemergence, 31 g ai/ha): 70
- Kochia plant response rating (kochia; 125 g ai/ha, preemergence): 100
- Plant response rating, Kochia (kochia; Preemergence, 16 g ai/ha): 0
- Plant response rating, Kochia (kochia; Preemergence, 31 g ai/ha): 100
- Morningglory plant response rating (pitted morningglory; 62 g ai/ha, Preemergence): 90
- Morningglory plant response rating (pitted morningglory; 125 g ai/ha, preemergence): 100
- Plant response rating, Morningglory (pitted morningglory; Preemergence, 16 g ai/ha): 0
- Plant response rating, Morningglory (pitted morningglory; Preemergence, 31 g ai/ha): 30
- Purple Nutsedge plant response rating (purple nutsedge; 62 g ai/ha, Preemergence): 100
- Purple Nutsedge plant response rating (purple nutsedge; 125 g ai/ha, preemergence): 100
- Plant response rating, Purple Nutsedge (purple nutsedge; Preemergence, 16 g ai/ha): 25
- Plant response rating, Purple Nutsedge (purple nutsedge; Preemergence, 31 g ai/ha): 65
- Black Mustard plant response rating (mustard; 62 g ai/ha, Preemergence): 100
- Black Mustard plant response rating (mustard; 125 g ai/ha, preemergence): 100
- Plant response rating, Black Mustard (mustard; Preemergence, 16 g ai/ha): 35
- Plant response rating, Black Mustard (mustard; Preemergence, 31 g ai/ha): 80
- Guineagrass plant response rating (guineagrass; 62 g ai/ha, Preemergence): 100
- Guineagrass plant response rating (guineagrass; 125 g ai/ha, preemergence): 100
- Plant response rating, Guineagrass (guineagrass; Preemergence, 16 g ai/ha): 70
- Plant response rating, Guineagrass (guineagrass; Preemergence, 31 g ai/ha): 90
- Dallisgrass plant response rating (dallisgrass; 62 g ai/ha, Preemergence): 90
- Dallisgrass plant response rating (dallisgrass; 125 g ai/ha, preemergence): 100
- Plant response rating, Dallisgrass (dallisgrass; Preemergence, 16 g ai/ha): 65
- Plant response rating, Dallisgrass (dallisgrass; Preemergence, 31 g ai/ha): 80
- Barnyardgrass plant response rating (barnyardgrass; 62 g ai/ha, Preemergence): 95
- Barnyardgrass plant response rating (barnyardgrass; 125 g ai/ha, preemergence): 98
- Plant response rating, Barnyardgrass (barnyardgrass; Preemergence, 16 g ai/ha): 75
- Plant response rating, Barnyardgrass (barnyardgrass; Preemergence, 31 g ai/ha): 95
- Prickly Sida plant response rating (prickly sida; 62 g ai/ha, Preemergence): 95
- Prickly Sida plant response rating (prickly sida; 125 g ai/ha, preemergence): 100
- Plant response rating, Prickly Sida (prickly sida; Preemergence, 16 g ai/ha): 0
- Plant response rating, Prickly Sida (prickly sida; Preemergence, 31 g ai/ha): 70
- Purslane plant response rating (common purslane; 62 g ai/ha, Preemergence): 70
- Purslane plant response rating (common purslane; 125 g ai/ha, preemergence): 80
- Plant response rating, Purslane (common purslane; Preemergence, 16 g ai/ha): 40
- Plant response rating, Purslane (common purslane; Preemergence, 31 g ai/ha): 60
- Signalgrass plant response rating (broadleaf signalgrass; 62 g ai/ha, Preemergence): 75
- Signalgrass plant response rating (broadleaf signalgrass; 125 g ai/ha, preemergence): 75
- Plant response rating, Signalgrass (broadleaf signalgrass; Preemergence, 31 g ai/ha): 65
- Groundsel plant response rating (common groundsel; 62 g ai/ha, Preemergence): 95
- Groundsel plant response rating (common groundsel; 125 g ai/ha, preemergence): 98
- Plant response rating, Groundsel (common groundsel; Preemergence, 16 g ai/ha): 0
- Plant response rating, Groundsel (common groundsel; Preemergence, 31 g ai/ha): 25
- Chickweed plant response rating (common chickweed; 62 g ai/ha, Preemergence): 100
- Chickweed plant response rating (common chickweed; 125 g ai/ha, preemergence): 100
- Plant response rating, Chickweed (common chickweed; Preemergence, 16 g ai/ha): 70
- Plant response rating, Chickweed (common chickweed; Preemergence, 31 g ai/ha): 80
- Dayflower plant response rating (Virginia dayflower; 62 g ai/ha, Preemergence): 100
- Dayflower plant response rating (Virginia dayflower; 125 g ai/ha, preemergence): 100
- Plant response rating, Dayflower (Virginia dayflower; Preemergence, 16 g ai/ha): 0
- Plant response rating, Dayflower (Virginia dayflower; Preemergence, 31 g ai/ha): 80
- Bluegrass plant response rating (annual bluegrass; 62 g ai/ha, Preemergence): 60
- Bluegrass plant response rating (annual bluegrass; 125 g ai/ha, preemergence): 90
- Plant response rating, Bluegrass (annual bluegrass; Preemergence, 16 g ai/ha): 0
- Plant response rating, Bluegrass (annual bluegrass; Preemergence, 31 g ai/ha): 30
- Crabgrass, Naked plant response rating (naked crabgrass; 62 g ai/ha, Preemergence): 98
- Crabgrass, Naked plant response rating (naked crabgrass; 125 g ai/ha, preemergence): 100
- Plant response rating, Crabgrass, Naked (naked crabgrass; Preemergence, 16 g ai/ha): 90
- Plant response rating, Crabgrass, Naked (naked crabgrass; Preemergence, 31 g ai/ha): 98
- Quackgrass plant response rating (quackgrass; 62 g ai/ha, Preemergence): 75
- Quackgrass plant response rating (quackgrass; 125 g ai/ha, preemergence): 90
- Plant response rating, Quackgrass (quackgrass; Preemergence, 16 g ai/ha): 0
- Plant response rating, Quackgrass (quackgrass; Preemergence, 31 g ai/ha): 60
- Horseweed plant response rating (Canada horseweed; 125 g ai/ha, preemergence): 100
- Mallow plant response rating (common mallow; 62 g ai/ha, Preemergence): 100
- Mallow plant response rating (common mallow; 125 g ai/ha, preemergence): 100
- Plant response rating, Mallow (common mallow; Preemergence, 16 g ai/ha): 30
- Plant response rating, Mallow (common mallow; Preemergence, 31 g ai/ha): 30

SMILES: Cc1cc[n+]([O-])c([S+]([O-])Cc2c(C(F)(F)F)nn(C)c2Cl)c1 (racemic) [Compound 20]
- Plant response rating, Bermudagrass (bermudagrass; 8 g ai/ha, preemergence): 15
- Bermudagrass plant response rating (bermudagrass; 62 g ai/ha, Preemergence): 50
- Plant response rating, Bermudagrass (bermudagrass; Preemergence, 16 g ai/ha): 20
- Plant response rating, Bermudagrass (bermudagrass; Preemergence, 31 g ai/ha): 50
- Plant response rating, Kochia (kochia; 8 g ai/ha, preemergence): 0
- Kochia plant response rating (kochia; 62 g ai/ha, Preemergence): 50
- Plant response rating, Kochia (kochia; Preemergence, 16 g ai/ha): 0
- Plant response rating, Kochia (kochia; Preemergence, 31 g ai/ha): 0
- Plant response rating, Morningglory (pitted morningglory; 8 g ai/ha, preemergence): 0
- Morningglory plant response rating (pitted morningglory; 62 g ai/ha, Preemergence): 40
- Plant response rating, Morningglory (pitted morningglory; Preemergence, 16 g ai/ha): 0
- Plant response rating, Morningglory (pitted morningglory; Preemergence, 31 g ai/ha): 15
- Plant response rating, Purple Nutsedge (purple nutsedge; 8 g ai/ha, preemergence): 0
- Purple Nutsedge plant response rating (purple nutsedge; 62 g ai/ha, Preemergence): 25
- Plant response rating, Purple Nutsedge (purple nutsedge; Preemergence, 16 g ai/ha): 0
- Plant response rating, Purple Nutsedge (purple nutsedge; Preemergence, 31 g ai/ha): 0
- Plant response rating, Black Mustard (mustard; 8 g ai/ha, preemergence): 0
- Black Mustard plant response rating (mustard; 62 g ai/ha, Preemergence): 90
- Plant response rating, Black Mustard (mustard; Preemergence, 16 g ai/ha): 50
- Plant response rating, Black Mustard (mustard; Preemergence, 31 g ai/ha): 60
- Plant response rating, Guineagrass (guineagrass; 8 g ai/ha, preemergence): 0
- Guineagrass plant response rating (guineagrass; 62 g ai/ha, Preemergence): 95
- Plant response rating, Guineagrass (guineagrass; Preemergence, 16 g ai/ha): 0
- Plant response rating, Guineagrass (guineagrass; Preemergence, 31 g ai/ha): 90
- Plant response rating, Dallisgrass (dallisgrass; 8 g ai/ha, preemergence): 0
- Dallisgrass plant response rating (dallisgrass; 62 g ai/ha, Preemergence): 75
- Plant response rating, Dallisgrass (dallisgrass; Preemergence, 16 g ai/ha): 0
- Plant response rating, Dallisgrass (dallisgrass; Preemergence, 31 g ai/ha): 20
- Plant response rating, Barnyardgrass (barnyardgrass; 8 g ai/ha, preemergence): 0
- Barnyardgrass plant response rating (barnyardgrass; 62 g ai/ha, Preemergence): 90
- Plant response rating, Barnyardgrass (barnyardgrass; Preemergence, 16 g ai/ha): 40
- Plant response rating, Barnyardgrass (barnyardgrass; Preemergence, 31 g ai/ha): 80
- Plant response rating, Prickly Sida (prickly sida; 8 g ai/ha, preemergence): 0
- Prickly Sida plant response rating (prickly sida; 62 g ai/ha, Preemergence): 60
- Plant response rating, Prickly Sida (prickly sida; Preemergence, 16 g ai/ha): 0
- Plant response rating, Prickly Sida (prickly sida; Preemergence, 31 g ai/ha): 20
- Plant response rating, Purslane (common purslane; 8 g ai/ha, preemergence): 0
- Purslane plant response rating (common purslane; 62 g ai/ha, Preemergence): 25
- Plant response rating, Purslane (common purslane; Preemergence, 16 g ai/ha): 15
- Plant response rating, Purslane (common purslane; Preemergence, 31 g ai/ha): 15
- Plant response rating, Signalgrass (broadleaf signalgrass; 8 g ai/ha, preemergence): 50
- Plant response rating, Signalgrass (broadleaf signalgrass; 16 g ai/ha, preemergence): 35
- Signalgrass plant response rating (broadleaf signalgrass; 62 g ai/ha, Preemergence): 75
- Plant response rating, Signalgrass (broadleaf signalgrass; Preemergence, 31 g ai/ha): 65
- Plant response rating, Groundsel (common groundsel; 8 g ai/ha, preemergence): 0
- Groundsel plant response rating (common groundsel; 62 g ai/ha, Preemergence): 0
- Plant response rating, Groundsel (common groundsel; Preemergence, 16 g ai/ha): 0
- Plant response rating, Groundsel (common groundsel; Preemergence, 31 g ai/ha): 0
- Plant response rating, Chickweed (common chickweed; 8 g ai/ha, preemergence): 0
- Chickweed plant response rating (common chickweed; 62 g ai/ha, Preemergence): 95
- Plant response rating, Chickweed (common chickweed; Preemergence, 16 g ai/ha): 80
- Plant response rating, Chickweed (common chickweed; Preemergence, 31 g ai/ha): 90
- Plant response rating, Dayflower (Virginia dayflower; 8 g ai/ha, preemergence): 0
- Dayflower plant response rating (Virginia dayflower; 62 g ai/ha, Preemergence): 60
- Plant response rating, Dayflower (Virginia dayflower; Preemergence, 16 g ai/ha): 0
- Plant response rating, Dayflower (Virginia dayflower; Preemergence, 31 g ai/ha): 0
- Plant response rating, Bluegrass (annual bluegrass; 8 g ai/ha, preemergence): 0
- Bluegrass plant response rating (annual bluegrass; 62 g ai/ha, Preemergence): 40
- Plant response rating, Bluegrass (annual bluegrass; Preemergence, 16 g ai/ha): 0
- Plant response rating, Bluegrass (annual bluegrass; Preemergence, 31 g ai/ha): 0
- Plant response rating, Crabgrass, Naked (naked crabgrass; 8 g ai/ha, preemergence): 75
- Crabgrass, Naked plant response rating (naked crabgrass; 62 g ai/ha, Preemergence): 95
- Plant response rating, Crabgrass, Naked (naked crabgrass; Preemergence, 16 g ai/ha): 75
- Plant response rating, Crabgrass, Naked (naked crabgrass; Preemergence, 31 g ai/ha): 80
- Plant response rating, Quackgrass (quackgrass; 8 g ai/ha, preemergence): 0
- Quackgrass plant response rating (quackgrass; 62 g ai/ha, Preemergence): 60
- Plant response rating, Quackgrass (quackgrass; Preemergence, 16 g ai/ha): 0
- Plant response rating, Quackgrass (quackgrass; Preemergence, 31 g ai/ha): 0
- Plant response rating, Horseweed (Canada horseweed; 8 g ai/ha, preemergence): 0
- Horseweed plant response rating (Canada horseweed; 62 g ai/ha, Preemergence): 0
- Plant response rating, Horseweed (Canada horseweed; Preemergence, 16 g ai/ha): 0
- Plant response rating, Horseweed (Canada horseweed; Preemergence, 31 g ai/ha): 0
- Plant response rating, Mallow (common mallow; 8 g ai/ha, preemergence): 0
- Mallow plant response rating (common mallow; 62 g ai/ha, Preemergence): 60
- Plant response rating, Mallow (common mallow; Preemergence, 16 g ai/ha): 0
- Plant response rating, Mallow (common mallow; Preemergence, 31 g ai/ha): 25
